Legend:
Format in all cases: biochemical
JAK2 = target: T1, JAK2 (Homo sapiens, UniProt O60674); test: JAK2 Inhibition Assay (Omnia kinase fluorescence peptide substrate assay); conditions: averaged IC50 ranges; assay of Example C; 25 μM (Km app) or 1 mM ATP, 5 nM JAK2
T1 construct: purchased Invitrogen Corporation, Carlsbad, Calif; PV4288
From the text: (§1) The assays described in Examples A, B, C and D for the determination of Tyk2, JAK1, JAK2 and JAK3 kinase activity, respectively, utilized the Omnia® Kinase fluorescence peptide substrate-based technology (Invitrogen). The specific components of the assay mixture are described in Examples A, B, C and D. In these assays, Mg^2+ is chelated upon phosphorylation of the Omnia peptide by the kinase to form a bridge between the chelation-enhanced fluorophore Sox and the phosphate, resulting in an increase in fluorescence emission at 485 nm when excited at […]. The reactions were therefore read at excitation 360 nm and emission was measured at 485 nm every 50 seconds for 45 minutes using a PerkinElmer EnVision Multilabel Plate Reader.
(§2) The final buffer conditions for Tyk2, JAK1, JAK2, and JAK3 assays were as follows: 25 mM HEPES, pH 7.4, 10 mM MgCl2, 0.01% Triton X-100 and 1 mM DTT.
(§3) Compounds were prepared at 50× the final concentration in DMSO by conducting 3-fold serial dilutions from a 500-μM intermediate dilution to give a 10-point dosing curve having a high dose of 10 μM. Two-μL aliquots of these were transferred to a fresh plate for a ten-fold intermediate dilution with assay buffer. Five-μL aliquots of the diluted compounds were then transferred to 20-μL of assay mixtures described in Examples A, B, C and D for a final concentration of DMSO of 2%. A standard or reference compound was typically included on each assay plate to validate that plate. For each plate, percent of control (POC) values were calculated for each well according to the following equation:
(§4) where Xmax=Average Uninhibited Controls • Xmin=Average Background IC50's were estimated from the POC's using a standard 4-parameter logistic model:
(§5) where • A=Minimum Y (Bottom Asymptote) • B=Maximum Y (Top Asymptote) • C=EC50 • D=Slope Factor • X=Compound Concentration (nM) • Y=POC
(§6) The IC50 is defined as the concentration of inhibitor at which the POC equals 50 for the fitted curve.
(§7) Compounds of Formula I were screened for their ability to inhibit JAK2 using the general enzyme inhibition assay method, in which the assay mixture contained 25 μM (Km app) or 1 mM ATP, 10 μM Omnia® Y7 peptide (Catalog #IVGN KNZ3071C, Invitrogen Corporation, Carlsbad, Calif.) and 5 nM JAK2 in a total volume of 20 μL. JAK2 was purchased from Invitrogen Corporation, Carlsbad, Calif. (catalog #IVGN PV4288).

Human Tyk2 kinase domain = target: T2, Human Tyk2 kinase domain (Homo sapiens, UniProt P29597); test: Tyk2 Inhibition Assay (Omnia kinase fluorescence peptide substrate assay); conditions: averaged IC50 ranges; assay of Example A; 10 μM (Km app) or 1 mM ATP, 2 nM Tyk2
T2 construct: comprising amino acids 886 to 1187 with 10 additional histidine residues; 10xHis (histidine tag) (C, cleaved yes); made in house
T2 sequence (P29597 886-1187): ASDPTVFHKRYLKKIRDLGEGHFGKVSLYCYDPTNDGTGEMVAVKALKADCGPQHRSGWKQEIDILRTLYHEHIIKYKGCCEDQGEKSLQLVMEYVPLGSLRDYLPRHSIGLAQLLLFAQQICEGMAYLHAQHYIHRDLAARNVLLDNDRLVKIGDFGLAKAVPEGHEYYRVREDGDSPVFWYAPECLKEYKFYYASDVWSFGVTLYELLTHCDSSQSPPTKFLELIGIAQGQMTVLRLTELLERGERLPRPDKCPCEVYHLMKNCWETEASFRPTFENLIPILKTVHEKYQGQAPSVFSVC
From the text: as §1, §2, §3, §4, §5, §6
Compounds of Formula I were screened for their ability to inhibit Tyk2 using the general enzyme inhibition assay method, in which the assay mixture contained 10 μM (Km app) or 1 mM ATP, 8 μM Omnia® Y12 peptide (Catalog #IVGN KPZ3121C; Invitrogen Corporation, Carlsbad, Calif.) and 2 nM Tyk2 in a total volume of 20 μL. Human Tyk2 kinase domain, comprising amino acids 886 to 1187 with 10 additional histidine residues (histidine tag) on the carboxy terminus, was expressed and purified from bacculovirus in-house at Array BioPharma Inc. (Boulder, Colo.). The histidine tag was cleaved after purification using standard conditions.

JAK3 = target: T3, JAK3 (Homo sapiens, UniProt P52333); test: JAK3 Inhibition Assay (Omnia kinase fluorescence peptide substrate assay); conditions: averaged IC50 ranges; assay of Example D; 10 μM (Km app) or 1 mM ATP, 2.5 nM JAK3
T3 construct: purchased Invitrogen Corporation, Carlsbad, Calif; PV4080
T3 sequence (P52333 1-1124): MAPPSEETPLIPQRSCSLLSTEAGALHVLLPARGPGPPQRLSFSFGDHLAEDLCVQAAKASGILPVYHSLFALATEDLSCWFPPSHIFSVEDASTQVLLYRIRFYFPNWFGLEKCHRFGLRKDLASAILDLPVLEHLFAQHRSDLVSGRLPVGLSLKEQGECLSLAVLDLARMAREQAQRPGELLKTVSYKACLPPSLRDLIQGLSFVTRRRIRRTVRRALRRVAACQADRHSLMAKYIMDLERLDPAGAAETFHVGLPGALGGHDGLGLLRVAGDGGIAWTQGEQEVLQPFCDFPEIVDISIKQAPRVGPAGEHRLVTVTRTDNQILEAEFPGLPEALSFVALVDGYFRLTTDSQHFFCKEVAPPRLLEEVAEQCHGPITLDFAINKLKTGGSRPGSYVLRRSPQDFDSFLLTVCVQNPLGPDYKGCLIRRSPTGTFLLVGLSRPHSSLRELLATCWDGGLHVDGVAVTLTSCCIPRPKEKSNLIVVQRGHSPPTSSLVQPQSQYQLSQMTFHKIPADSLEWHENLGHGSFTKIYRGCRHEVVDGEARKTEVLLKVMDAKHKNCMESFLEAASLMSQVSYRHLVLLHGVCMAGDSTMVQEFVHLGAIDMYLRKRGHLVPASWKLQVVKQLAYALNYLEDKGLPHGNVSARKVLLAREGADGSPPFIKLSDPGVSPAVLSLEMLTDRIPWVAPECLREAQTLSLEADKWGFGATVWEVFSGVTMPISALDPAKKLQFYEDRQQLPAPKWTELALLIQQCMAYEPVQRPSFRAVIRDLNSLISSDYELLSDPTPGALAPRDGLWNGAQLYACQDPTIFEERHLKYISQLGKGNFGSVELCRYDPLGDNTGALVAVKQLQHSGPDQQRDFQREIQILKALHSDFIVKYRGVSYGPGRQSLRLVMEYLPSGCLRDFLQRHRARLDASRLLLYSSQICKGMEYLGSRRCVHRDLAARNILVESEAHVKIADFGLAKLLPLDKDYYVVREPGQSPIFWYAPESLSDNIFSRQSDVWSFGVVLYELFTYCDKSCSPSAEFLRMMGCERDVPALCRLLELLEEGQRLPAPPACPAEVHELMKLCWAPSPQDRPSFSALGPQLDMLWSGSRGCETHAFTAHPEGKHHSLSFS
From the text: as §1, §2, §3, §4, §5, §6
as §7, with “JAK3” for “JAK2”, “10” for “25”, “2.5” for “5”, “PV4080).” for “PV4288).”

JAK1 = target: T4, JAK1 (Homo sapiens, UniProt P23458); test: JAK1 Inhibition Assay (Omnia kinase fluorescence peptide substrate assay); conditions: averaged IC50 ranges; assay of Example B; 40 μM (Km app) or 1 mM ATP, 15 nM JAK1
T4 construct: purchased Invitrogen Corporation, Carlsbad, Calif; PV4775
From the text: as §1, §2, §3, §4, §5, §6
Compounds of Formula I were screened for their ability to inhibit JAK1 using the general enzyme inhibition assay method, in which the assay mixture contained 40 μM (Km app) or 1 mM ATP, 8 μM Omnia® Y12 peptide (Catalog #IVGN KPZ3121C; Invitrogen Corporation, Carlsbad, Calif.) and 15 nM JAK1 in a total volume of 20 μL. JAK1 was purchased from Invitrogen Corporation, Carlsbad, Calif. (catalog #IVGN PV4775).

T1 sequence (O60674 whole entry): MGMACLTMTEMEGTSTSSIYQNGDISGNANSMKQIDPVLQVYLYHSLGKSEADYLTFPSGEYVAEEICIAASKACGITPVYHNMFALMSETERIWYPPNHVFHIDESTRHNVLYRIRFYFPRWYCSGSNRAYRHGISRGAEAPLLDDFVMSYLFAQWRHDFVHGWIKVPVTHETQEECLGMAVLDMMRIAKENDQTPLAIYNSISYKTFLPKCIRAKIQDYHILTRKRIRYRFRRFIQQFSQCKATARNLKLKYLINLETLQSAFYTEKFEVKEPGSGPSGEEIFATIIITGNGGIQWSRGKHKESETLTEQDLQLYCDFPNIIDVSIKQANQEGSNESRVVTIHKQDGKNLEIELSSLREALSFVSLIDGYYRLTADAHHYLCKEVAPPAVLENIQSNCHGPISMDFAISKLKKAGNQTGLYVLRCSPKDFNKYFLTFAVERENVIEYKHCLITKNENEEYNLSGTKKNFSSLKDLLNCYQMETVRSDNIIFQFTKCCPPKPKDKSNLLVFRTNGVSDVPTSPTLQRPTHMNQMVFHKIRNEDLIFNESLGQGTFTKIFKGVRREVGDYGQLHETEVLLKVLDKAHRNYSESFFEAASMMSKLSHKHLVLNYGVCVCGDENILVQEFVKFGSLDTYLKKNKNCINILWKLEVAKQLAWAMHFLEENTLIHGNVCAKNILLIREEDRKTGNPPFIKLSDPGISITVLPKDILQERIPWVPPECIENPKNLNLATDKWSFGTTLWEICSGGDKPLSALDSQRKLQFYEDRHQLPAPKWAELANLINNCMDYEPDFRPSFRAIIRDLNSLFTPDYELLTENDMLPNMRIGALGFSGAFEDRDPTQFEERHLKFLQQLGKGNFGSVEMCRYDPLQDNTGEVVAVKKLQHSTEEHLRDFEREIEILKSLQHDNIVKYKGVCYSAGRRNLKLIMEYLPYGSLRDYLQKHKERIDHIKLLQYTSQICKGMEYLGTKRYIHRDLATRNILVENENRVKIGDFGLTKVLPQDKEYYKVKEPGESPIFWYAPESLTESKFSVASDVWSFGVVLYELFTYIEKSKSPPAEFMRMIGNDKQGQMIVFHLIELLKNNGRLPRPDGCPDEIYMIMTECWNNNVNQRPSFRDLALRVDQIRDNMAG
T4 sequence (P23458 whole entry): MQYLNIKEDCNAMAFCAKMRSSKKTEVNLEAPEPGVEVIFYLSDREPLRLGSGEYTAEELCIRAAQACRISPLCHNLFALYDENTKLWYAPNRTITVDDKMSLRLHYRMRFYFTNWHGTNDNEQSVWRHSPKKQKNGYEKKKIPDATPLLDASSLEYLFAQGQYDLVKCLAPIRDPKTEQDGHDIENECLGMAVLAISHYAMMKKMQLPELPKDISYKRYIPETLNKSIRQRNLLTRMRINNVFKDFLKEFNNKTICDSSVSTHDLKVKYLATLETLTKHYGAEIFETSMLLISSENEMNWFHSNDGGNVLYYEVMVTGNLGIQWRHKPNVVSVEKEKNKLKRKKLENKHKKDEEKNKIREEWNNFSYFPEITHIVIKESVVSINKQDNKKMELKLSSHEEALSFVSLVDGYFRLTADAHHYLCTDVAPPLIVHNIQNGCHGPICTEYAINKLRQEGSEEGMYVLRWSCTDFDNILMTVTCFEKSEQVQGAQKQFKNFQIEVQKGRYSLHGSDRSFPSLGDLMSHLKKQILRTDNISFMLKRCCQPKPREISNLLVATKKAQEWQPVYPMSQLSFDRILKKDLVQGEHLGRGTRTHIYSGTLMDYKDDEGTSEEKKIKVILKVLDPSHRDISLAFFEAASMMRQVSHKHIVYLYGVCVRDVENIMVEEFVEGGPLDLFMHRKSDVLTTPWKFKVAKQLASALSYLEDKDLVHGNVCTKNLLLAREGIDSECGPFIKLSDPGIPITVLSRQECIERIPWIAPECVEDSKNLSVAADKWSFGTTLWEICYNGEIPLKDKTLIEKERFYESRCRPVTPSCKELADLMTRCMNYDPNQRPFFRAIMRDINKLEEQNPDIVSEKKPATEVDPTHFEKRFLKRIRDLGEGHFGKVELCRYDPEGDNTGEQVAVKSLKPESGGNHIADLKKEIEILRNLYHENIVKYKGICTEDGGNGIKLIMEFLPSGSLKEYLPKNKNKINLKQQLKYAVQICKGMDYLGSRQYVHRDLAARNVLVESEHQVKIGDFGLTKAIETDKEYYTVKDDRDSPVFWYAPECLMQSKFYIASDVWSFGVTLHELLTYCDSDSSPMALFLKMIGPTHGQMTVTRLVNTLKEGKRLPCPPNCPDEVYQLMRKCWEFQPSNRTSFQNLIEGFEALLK

Row | Structure (SMILES) | IC50 (JAK2) [µM] | IC50 (Human Tyk2 kinase domain) [µM] | IC50 (JAK3) [µM] | IC50 (JAK1) [µM]
1 | Cn1cc(-c2cc3nccn3c(-c3cnn(C(CC#N)C4CCC4)c3)n2)cn1 (stereo not drawn) [Example 20, 3-cyclobutyl-3-(4-(7-(1-methyl-1H-pyrazol-4-yl)imidazo[1,2-c]pyrimidin-5-yl)-1H-pyrazol-1-yl)propanenitrile] | 0.01 to 0.1 | < 0.01 | > 1 | 0.01 to 0.1
2 | Cn1cc(-c2cc3nccn3c(-c3cnn(C4(CC#N)CCN(C(=O)OC(C)(C)C)CC4)c3)n2)cn1 [Example 21, tert-butyl 4-(cyanomethyl)-4-(4-(7-(1-methyl-1H-pyrazol-4-yl)imidazo[1,2-c]pyrimidin-5-yl)-1H-pyrazol-1-yl)piperidine-1-carboxylate] | > 1 | 0.1 to 1 | > 1 | > 1
3 | Cn1cc(-c2cc3nccn3c(-c3cnn(C4(CC#N)CCCCC4)c3)n2)cn1 [Example 22, 2-(1-(4-(7-(1-methyl-1H-pyrazol-4-yl)imidazo[1,2-c]pyrimidin-5-yl)-1H-pyrazol-1-yl)cyclohexyl)acetonitrile] | 0.1 to 1 | 0.01 to 0.1 | > 1 | 0.1 to 1
4 | Cn1cc(-c2cc3nccn3c(-c3cnn(C4(CC#N)CCCC4)c3)n2)cn1 [Example 23, 2-(1-(4-(7-(1-methyl-1H-pyrazol-4-yl)imidazo[1,2-c]pyrimidin-5-yl)-1H-pyrazol-1-yl)cyclopentyl)acetonitrile] | 0.1 to 1 | 0.01 to 0.1 | > 1 | 0.1 to 1
5 | Cn1cc(-c2cc3nccn3c(-c3cnn(C4(CC#N)COC4)c3)n2)cn1 [Example 24, 2-(3-(4-(7-(1-methyl-1H-pyrazol-4-yl)imidazo[1,2-c]pyrimidin-5-yl)-1H-pyrazol-1-yl)oxetan-3-yl)acetonitrile] | 0.01 to 0.1 | 0.01 to 0.1 | > 1 | 0.01 to 0.1
6 | Cn1cc(-c2cc3ncc(Cl)n3c(-c3cnn(C(CC#N)C4CC4)c3)n2)cn1 (stereo not drawn) [Example 25, 3-(4-(3-chloro-7-(1-methyl-1H-pyrazol-4-yl)imidazo[1,2-c]pyrimidin-5-yl)-1H-pyrazol-1-yl)-3-cyclopropylpropanenitrile] | 0.01 to 0.1 | < 0.01 | 0.1 to 1 | 0.01 to 0.1
7 | Cn1cc(-c2cc3ncc(C#N)n3c(-c3cnn(C(CC#N)C4CC4)c3)n2)cn1 (stereo not drawn) [Example 26, 5-(1-(2-cyano-1-cyclopropylethyl)-1H-pyrazol-4-yl)-7-(1-methyl-1H-pyrazol-4-yl)imidazo[1,2-c]pyrimidine-3-carbonitrile] | 0.1 to 1 | 0.1 to 1 | > 1 | > 1
8 | CC(=O)N1CCC(C(CC#N)n2cc(-c3nc(-c4cnn(C)c4)cc4nccn34)cn2)CC1 (stereo not drawn) [Example 27, 3-(1-acetylpiperidin-4-yl)-3-(4-(7-(1-methyl-1H-pyrazol-4-yl)imidazo[1,2-c]pyrimidin-5-yl)-1H-pyrazol-1-yl)propanenitrile] | 0.1 to 1 | 0.1 to 1 | > 1 | 0.1 to 1
9 | CN1CCC(CC#N)(n2cc(-c3nc(-c4cnn(C)c4)cc4nccn34)cn2)CC1 [Example 28, 2-(1-methyl-4-(4-(7-(1-methyl-1H-pyrazol-4-yl)imidazo[1,2-c]pyrimidin-5-yl)-1H-pyrazol-1-yl)piperidin-4-yl)acetonitrile] | 0.1 to 1 | 0.01 to 0.1 | > 1 | > 1
10 | CCN1CCC(CC#N)(n2cc(-c3nc(-c4cnn(C)c4)cc4nccn34)cn2)CC1 [Example 29, 2-(1-ethyl-4-(4-(7-(1-methyl-1H-pyrazol-4-yl)imidazo[1,2-c]pyrimidin-5-yl)-1H-pyrazol-1-yl)piperidin-4-yl)acetonitrile] | > 1 | 0.1 to 1 | > 1 | > 1
11 | CCCN1CCC(CC#N)(n2cc(-c3nc(-c4cnn(C)c4)cc4nccn34)cn2)CC1 [Example 30, 2-(4-(4-(7-(1-methyl-1H-pyrazol-4-yl)imidazo[1,2-c]pyrimidin-5-yl)-1H-pyrazol-1-yl)-1-propylpiperidin-4-yl)acetonitrile] | > 1 | 0.1 to 1 | > 1 | > 1
12 | Cn1cc(-c2cc3nccn3c(-c3cnn(C4(CC#N)CCN(CC(F)(F)F)CC4)c3)n2)cn1 [Example 31, 2-(4-(4-(7-(1-methyl-1H-pyrazol-4-yl)imidazo[1,2-c]pyrimidin-5-yl)-1H-pyrazol-1-yl)-1-(2,2,2-trifluoroethyl)piperidin-4-yl)acetonitrile] | 0.1 to 1 | 0.01 to 0.1 | > 1 | 0.1 to 1
